According to patent publication US10188858B2, “Method and device for treating a tissue with a high frequency electromagnetic field” (University of Cincinnati, priority 2013, dated 2019):

How the values were obtained:
[1] = system: VEGF; assay: VEGF protein release by endothelial cells (ELISA) with inhibitors; assay type: cell-based, C57 mice
From the text: Cells from passages 4-9 were used. […] VEGF and PIGF are two major angiogenic cytokines acting through VEGF receptors pathway. VEGF binds to both VEGFR1 and VEGFR2 receptors, although signals through VEGFR2. In contrast, PIGF which only binds to and signals through VEGFR1. To determine the effect of EF on the VEGF and PIGF protein release by endothelial cells, culture medium samples (at least N=6 separate experiments) were used to measure VEGF and PIGF protein levels using appropriate ELISA kits (R&D Systems, MN, USA).

[2] = system: MEK; assay: Total and phosphorylated MEK levels (sandwich ELISA) with inhibitors; assay type: cell-based, C57 mice
From the text: (§1) Murine microvascular endothelial cells were isolated from the lungs of C57 mice (Jackson Laboratory, Maine, USA) as described previously. Cells were doubly sorted using PECAM-1- and ICAM-2-conjugated magnetic beads (Invitrogen Corporation, CA, USA) and cultured in medium M199 (HyClone, UT, USA) supplemented with 10% fetal bovine serum (FBS; Atlanta Biologicals, GA, USA), 1% antibiotic/antimycotic (AB/AM; Atlanta Biologicals, USA), 1% heparin (Sigma-Aldrich, MO, USA) and 1Ong/mL endothelial growth factor supplement (Sigma-Aldrich, MO, USA). Cells from passages 4-9 were used. All experiments were conducted in the culture medium (medium M199, 10% FBS, 1% antibiotic/antimycotic and 1% heparin) without additional growth factor supplementation.
(§2) Capillary morphogenesis, and MAPK pathways activation were quantified following 12 hours of EF exposure, and the analyses of VEGF expression, cell proliferation and apoptosis were conducted up to 24 hours of EF exposure. The experimental groups included endothelial cells exposed to high frequency EF, low frequency EF and a group not exposed to EF.
(§3) After EF exposure, cells were lysed using buffer containing 20 mM Tris-HCl, 150 mM NaCl, 1 mM Na2EDTA, 1 mM EGTA, 1% Triton, 2.5 mM sodium pyrophosphate, 1 mM beta-glycerophosphate, 1 mM Na3VO4, 1 μg/ml leupeptin and 1 mM phenylmethylsulfonyl fluoride (PMSF). The total protein concentration in each sample lysate was determined using CoomassiePlus Assay Kit (Thermo Fisher Scientific, IL, USA). 10 μg of total protein was used for all MAPK pathway ELISAs. The total and phosphorylated levels of ERK, MEK, p38 and JNK proteins were quantified using appropriate sandwich ELISA kits (Cell Signaling Technology, MA, USA). MEK-cRaf complex levels and free (unbound) MEK levels were quantified according to previously described protocols with modifications. The total MEK levels are presented in optical densities and phosphorylated MEK, MEK-cRaf and pMEK-cRaf levels are normalized to total MEK levels. For negative control, β-actin (Invitrogen, USA) was immunoprecipitated from the lysate and subjected to ELISAs. All ELISA assays were performed in duplicates or triplicates, with all experiments repeated at least N=6 times.
To determine the role of VEGF signaling in EF-mediated angiogenic responses, experiments were repeated in the presence of 0.1 μg/mL soluble anti-mouse VEGF blocking antibody (R&D Systems, MN, USA), or 5 μM SU5416 (Sigma-Aldrich, MO, USA), a specific pharmacological VEGFR2inhibitor, or in the presence of 10 μM U0126 MEK inhibitor (Sigma-Aldrich, MO, USA). […] To examine the role of PI3K, Ca^2+ and eNOS signaling in EF-mediated MEK activation, cells were treated with 10 μM LY294002 (PI3K inhibitor), 10 μM BAPTA (Ca^2+ chelator), or 200 μM Nω-Nitro-L-arginine methyl ester hydrochloride (L-NAME, eNOS inhibitor),respectively, and the total and phosphorylated MEK levels were measured using ELISA. All inhibitors were added to the culture supernatant and pre-incubated for one hour to equilibrate respective target blocking prior to EF exposure. All analyses were done in duplicates/triplicates, and all inhibitor experiments were repeated at least N=3 times.

[3] = system: Murine microvascular endothelial cells; assay: In vitro capillary morphogenesis (nanofiber-based angiogenesis assay) with inhibitors; assay type: cell-based, C57 mice
Protocol: Cells from passages 4-9 were used. […] Capillary morphogenesis was assessed using nanofiber-based angiogenesis assay previously developed in the lab, in which endothelial cells seeded on RAD16-II peptide nanofiber hydrogel (SynBioSci Corporation, CA, USA) undergo spontaneous capillary morphogenesis with clearly identifiable lumens in the absence of external angiogenic growth factors. Endothelial cells were seeded on the surface of 1% (w/v) hydrogel in cell culture inserts (Millipore, MA, USA) at a seeding density of 10^5 cells/cm^2. Cells seeded on 5% gelatin-coated inserts were used as a negative control. Cells were labeled with CellTracker dye (Invitrogen, USA) before seeding or with Phalloidin-TRITC (Sigma Aldrich, St Louis, Mo., USA). After EF exposure, samples (at least N=10 separate EF exposure experiments per group) were fixed with 2% formaldehyde, and images of the sample surface (n=5 per sample) were captured at 20× magnification using an inverted fluorescent microscope (Olympus IX81; Olympus, Pa., USA). The characteristic size of capillary-like networks was determined using correlation analysis and custom-written MATLAB code (The Math Works, MA, USA).

[4] = system: MEK-cRaf complex; conditions: high frequency EF in the presence of 10 μM U0126, compared to low frequency or no-EF groups
From the text: as §1, §2
as §3, with “All ELISA assays were performed in duplicates or triplicates, with all experiments repeated at least N=6 times.” left out

[5] = 10 μM U0126, all experimental groups, compared to no inhibitor controls
[6] = 10 μM U0126, high frequency EF vs low frequency EF and no-EF groups

Cc1cc(C)c(/C=C2\C(=O)Nc3ccccc32)[nH]1 [SU5416]
VEGF release ([1]; 5 μM SU5416, all experimental groups, including no-EF controls): significantly reduced
high frequency EF-induced MEK phosphorylation ([2]; 5 μM SU5416, 7.5 GHz EF vs low frequency and no-EF controls): did not block
capillary morphogenesis ([3]; 5 μM SU5416, all experimental groups, including no-EF controls, 12 hours): completely abolished

O=C(O)CN(CC(=O)O)c1ccccc1OCCOc1ccccc1N(CC(=O)O)CC(=O)O [BAPTA]
MEK phosphorylation levels ([2]; 10 μM BAPTA, high frequency EF and no-EF groups): significantly reduced
phosphorylated MEK levels in high frequency EF group compared to no-EF controls ([2]; in the presence of 10 μM BAPTA): lower

COC(=O)[C@@H](N)CCCNC(=N)N[N+](=O)[O-].Cl [L-NAME, Nω-Nitro-L-arginine methyl ester hydrochloride]
EF-induced increase in pMEK ([2]; 200 μM L-NAME, high frequency EF): abolished
base pMEK levels ([2]; 200 μM L-NAME, no-EF controls): did not affect

N#CC(=C(/N)Sc1ccccc1N)/C(C#N)=C(\N)Sc1ccccc1N [U0126]
VEGF release by endothelial cells [1, 5]: significantly reduced
effect of high frequency EF on VEGF release [1, 6]: effectively reversed
total concentration of MEK ([2]; presence of 10 μM U0126): did not affect
capillary morphogenesis (network size) [3, 5]: significantly reduced
effect of high frequency EF on capillary morphogenesis [3, 6]: effectively reversed
free MEK levels [4]: increased
phosphorylation of MEK-cRaf complex (pMEK-cRaf) [4]: reduced
protein levels of MEK-cRaf complex [4]: reduced
